In US7964613B2 (Asahi Kasei Pharma Corporation, priority 2007, dated 2011):

Legend:
[1] = molecular target: T1, human ROCK1 (Homo sapiens, UniProt Q13464); assay: Measurement of Rho kinase inhibitory activity (ELISA of MBS phosphorylation); format: biochemical; conditions: human ROCK1, MBS substrate, 100 μM ATP, 30° C. for 10 minutes
T1 construct: His tag (N); host or cells: insect cells (Sf9)
Method: In this test, human ROCK1 was used as Rho kinase, MBS (myosin binding subunit, subunit constituting myosin phosphatase) was used as the substrate of Rho kinase, and an anti-phosphorylated MBS antibody was used for detection of phosphorylation. The activity for inhibiting Rho kinase was determined by measuring phosphorylation of MBS by the Rho kinase by ELISA in the presence of an appropriately diluted test compound. As the Rho kinase used, a recombinant protein (N-terminal His-tagged recombinant human ROCK1 residues (1Met-[…])) was used, which was produced in insect cells (Sf9) using a sequence (1-727), of which activity was confirmed in the paper of Ishizaki et al. (Ishizaki, T. et al., FEBS Letters, 404, pp 118-124, 1997), based on the sequence of human ROCK1 (p 160 ROCK) described in the report of Ishizaki et al. (Ishizaki, T. et al., EMBO J., 15, pp 1885-1893, 1996). Further, as the MBS protein and anti-phosphorylated MBS antibody, those prepared according to the method described in the paper of Ito et al. (Ito, K et al., J. Physiol., 546, pp 823-836, 2003) were used.
A solution of MBS (Asahi Kasei Pharma, lot No, 040814n7-10) diluted with PBS to an appropriate concentration was added to an ELISA plate (Maxisorp, Nunc), and left, stand overnight at 4° C., and then the wells were washed twice with a washing solution (WB, washing buffer, 0.1% Tween 20/PBS). To the wells were added 1% bovine serum albumin (Sigma)/PBS, and left for 1 to 3 hours, and then the wells were washed 5 times with WB to prepare a substrate-immobilized plate. Onto this plate, a reaction mixture (5 mM MgSO4/0.1 M NaCl/20 mM HEPES (pH 7.5)/100 μM ATP/5 mM DTT), a test compound, and appropriately diluted human ROCK1 (Asahi Kasei Pharma, lot No, 030126.120-22) were added, and then reacted at 30° C. for 10 minutes. Then, 0.2 M EDTA (pH 7.5) was added to terminate the reaction, and the wells were washed 5 times with WB. A rabbit anti-phosphorylated MBS antibody solution (Asahi Kasei Pharma, lot No, 122676431) diluted 10,000 times with WB containing 1% bovine serum albumin was added to the wells, and after the reaction for 1 hour, the wells were washed 5 times with WB. Goat anti-rabbit IgG-HRP (Zymed) diluted 1,000 times with WB containing 1% bovine serum albumin was added to the wells as the secondary detection antibody and the mixture was reacted for 1 hour, and then the wells were washed 5 times with WB. An OPD (o-phenylenediamine) solution (1 mg/ml OPD, Sigma), 5.1 g/l of citric acid monohydrate, and 18.4 g/l of Na2HPO4.12H2O were added to the wells to develop color, […] was added 5 minutes later to terminate the color development, and absorbance was measured at 490 nm.
The inhibition ratio was calculated as follows. Inhibition ratio(%)=[…]
Further, the inhibition ratio was calculated with changing the concentration of the test compound, and a compound concentration providing an inhibition ratio of 50% was obtained as IC50.

[2] = system: rabbit normal intraocular pressure; assay: Intraocular pressure reducing action; format: in vivo, Japanese white rabbit; conditions: Oryctolagus cuniculus, topical; 3 mM aqueous solution, 50 μl to the left eye; max IOP reduction (2, 4, 6 hours) / value immediately before administration; read-out: intraocular pressure reducing degree
Method: A Japanese white rabbit having a body weight of about 2 kg was placed in a positioner and naturalized for one week before the experiment. An opthalmologic local anesthesant (Benoxil) was administered to both eyes, and then intraocular pressure was measured by using a tonometer (Classic 30, Solan). A 3 mM aqueous solution of a test compound was administered in a volume of 50 μl to the left eye, and the right eye was not treated (control eye). The intraocular pressure values were measured for the left and right eyes immediately before, and 2, 4 and 6 hours after the administration of the aqueous solution of the test compound, and the difference of the measured values for the left and right eyes was considered an intraocular pressure reduction value of the test medicament at each measurement time. The largest difference of the values for the left and right eyes among the measured values at the measurement times (after 2, 4 and 6 hours) was considered the maximum intraocular pressure reduction value (max ? IOP) of each test medicament. The intraocular pressure reducing degree representing the intraocular pressure reducing action of each test medicament was calculated according to the following formula. Since rabbits show significant daily variation of intraocular pressure, daily variation is added when change of intraocular pressure is measured over time, and the intraocular pressure reducing action may be overestimated. Therefore, we used this calculation method of intraocular pressure reduction value in order to minimize the influence of the variation. Intraocular pressure reducing degree(%)=(max ? IOP/Intraocular pressure value immediately before administration)×100

T1 sequence (Q13464 1-727): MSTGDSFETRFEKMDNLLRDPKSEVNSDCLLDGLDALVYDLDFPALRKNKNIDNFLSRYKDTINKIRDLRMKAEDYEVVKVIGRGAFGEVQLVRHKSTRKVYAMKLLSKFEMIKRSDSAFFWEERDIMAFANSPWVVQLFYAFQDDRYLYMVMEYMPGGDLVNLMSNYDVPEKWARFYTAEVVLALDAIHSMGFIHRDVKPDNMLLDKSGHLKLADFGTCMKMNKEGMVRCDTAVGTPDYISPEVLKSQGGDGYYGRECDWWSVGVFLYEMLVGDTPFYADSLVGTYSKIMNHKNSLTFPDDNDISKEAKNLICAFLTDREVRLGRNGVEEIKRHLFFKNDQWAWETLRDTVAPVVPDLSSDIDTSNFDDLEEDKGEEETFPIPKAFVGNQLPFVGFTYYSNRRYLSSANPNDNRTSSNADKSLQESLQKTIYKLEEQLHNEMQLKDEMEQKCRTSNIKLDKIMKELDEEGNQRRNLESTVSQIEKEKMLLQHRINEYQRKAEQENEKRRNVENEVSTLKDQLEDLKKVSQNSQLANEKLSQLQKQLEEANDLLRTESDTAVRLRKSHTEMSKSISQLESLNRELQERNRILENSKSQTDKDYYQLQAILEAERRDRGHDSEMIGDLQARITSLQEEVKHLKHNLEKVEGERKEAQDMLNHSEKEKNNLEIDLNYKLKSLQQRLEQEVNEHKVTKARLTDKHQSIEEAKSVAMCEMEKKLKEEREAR

SMILES	IC50 [1] [nM]	inhibition in vivo at 3000 µM [2] [%]
Cc1cncc2cccc(S(=O)(=O)N3CC[C@H](NCC#N)C3)c12 [Example 8-73]	1000 to 3000	–
COc1ccc(CN[C@H]2CCN(S(=O)(=O)c3cccc4cncc(Br)c34)C2)cc1 [Example 1-7]	< 1000	–
NCC1CCN(S(=O)(=O)c2cccc3cncc(Cl)c23)CC1 [Example 52, 4-(Aminomethyl)-1-(4-chloro-5-isoquinolinesulfonyl)piperidine]	< 1000	–
O=S(=O)(c1cccc2cncc(Br)c12)N1CC[C@H](NCc2ccc3c(c2)OCCO3)C1 [Example 1-38]	< 1000	–
Cc1cncc2cccc(S(=O)(=O)N3CC[C@H](NCc4ccccc4)C3)c12 [Example 8-6]	< 1000	–
C#Cc1cncc2cccc(S(=O)(=O)N3CC[C@H](NC4CCOCC4)C3)c12 [Example 10-31]	1000 to 3000	–
Cc1ccc(CN[C@H]2CCN(S(=O)(=O)c3cccc4cncc(C)c34)C2)s1 [Example 8-18]	1000 to 3000	–
COc1ccc(CN[C@H]2CCN(S(=O)(=O)c3cccc4cncc(C)c34)C2)cc1 [Example 8-7]	< 1000	–
O=S(=O)(c1cccc2cncc(Br)c12)N1CC[C@H](NCc2ccc(O)cc2)C1 [Example 1-11]	< 1000	–
C#Cc1cncc2cccc(S(=O)(=O)N3CC[C@H](NCc4ccco4)C3)c12 [Example 10-14]	1000 to 3000	–
NCC1CCN(S(=O)(=O)c2cccc3cncc(Cl)c23)C1 (stereo not shown) [Example 44, 3-(Aminomethyl)-1-(4-chloro-5-isoquinolinesulfonyl)pyrrolidine]	< 1000	–
Cc1cncc2cccc(S(=O)(=O)N3CC[C@H](NCc4ccc([N+](=O)[O-])cc4)C3)c12 [Example 8-9]	1000 to 3000	–
CC(=O)NCCC(=O)NC1CCN(S(=O)(=O)c2cccc3cncc(Cl)c23)C1 (stereo in doubt) [Example 97, (R)-3-[(3-Acetylamino)propionyl]amino-1-(4-chloro-5-isoquinolinesulfonyl)pyrrolidine]	–	10 to 20
O=C(Cn1ccnc1)N[C@H]1CCN(S(=O)(=O)c2cccc3cncc(Cl)c23)C1 [Example 86, (S)-3-[2-(1H-Imidazol-1-yl)acetyl]amino-1-(4-chloro-5-isoquinolinesulfonyl)pyrrolidine]	–	10 to 20
CN1CCN(CC(=O)N[C@H]2CCN(S(=O)(=O)c3cccc4cncc(Cl)c34)C2)CC1 [Example 89, (S)-3-[2-(4-Methylpiperazin-1-yl)acetyl]amino-1-(4-chloro-5-isoquinolinesulfonyl)pyrrolidine]	–	5 to 10
Cc1ccc(CN[C@H]2CCN(S(=O)(=O)c3cccc4cncc(C)c34)C2)o1 [Example 8-16]	1000 to 3000	–
NCC1CCCCN1S(=O)(=O)c1cccc2cncc(Cl)c12 (stereo not shown) [Example 61, 2-(Aminomethyl)-1-(4-chloro-5-isoquinolinesulfonyl)piperidine]	–	10 to 20
O=S(=O)(c1cccc2cncc(Br)c12)N1CC[C@H](NCc2ccccc2)C1 [Example 1-6]	< 1000	–
COCC(=O)N(C)[C@H]1CCN(S(=O)(=O)c2cccc3cncc(F)c23)C1 [Example 116, (S)-3-[N-(2-Methoxyacetyl)-N-methyl]amino-1-(4-fluoro-5-isoquinolinesulfonyl)pyrrolidine]	–	10 to 20
O=S(=O)(c1cccc2cncc(Cl)c12)N1CC[C@H](NC2CCOC2)C1 (stereo partly drawn) [Example 59-1, (3S)-3-(3-Tetrahydrofuranyl)amino-1-(4-chloro-5-isoquinolinesulfonyl)pyrrolidine]	–	10 to 20
COCC(=O)N[C@H]1CCN(S(=O)(=O)c2cccc3c(O)ncc(Cl)c23)C1 [Example 68-1, (S)-3-(2-Methoxyacetyl)amino-1-(1-hydroxy-4-chloro-5-isoquinolinesulfonyl)pyrrolidine]	–	5 to 10
COCC(=O)N(C)[C@H]1CCN(S(=O)(=O)c2cccc3cncc(Cl)c23)C1 [Example 67-1, (S)-3-[N-(2-Methoxyacetyl)-N-methyl]amino-1-(4-chloro-5-isoquinolinesulfonyl)pyrrolidine]	–	10 to 20
O=C(CN1CCN(CCO)CC1)N[C@H]1CCN(S(=O)(=O)c2cccc3cncc(Cl)c23)C1 [Example 92, (S)-3-[2-[4-(2-Hydroxyethyl)piperazin-1-yl]acetyl]amino-1-(4-chloro-5-isoquinolinesulfonyl)pyrrolidine]	–	10 to 20
O=S(=O)(c1cccc2cncc(Br)c12)N1CC[C@H](NC2CCC(O)CC2)C1 (stereo partly shown) [Example 1-33]	1000 to 3000	–
CC(=O)N[C@H]1CCN(S(=O)(=O)c2cccc3cncc(Cl)c23)C1 [Example 49-1, (S)-3-(Acetylamino)-1-(4-chloro-5-isoquinolinesulfonyl)pyrrolidine]	–	10 to 20
Cc1cncc2cccc(S(=O)(=O)N3CC[C@H](NC(=O)CN(C)C)C3)c12 [Example 72, (S)-3-[2-(Dimethylamino)acetyl]amino-1-(4-methyl-5-isoquinolinesulfonyl)pyrrolidine]	–	10 to 20
COCC(=O)N[C@H]1CCN(S(=O)(=O)c2cccc3cncc(C)c23)C1 [Example 70, (S)-3-(2-Methoxyacetyl)amino-1-(4-methyl-5-isoquinolinesulfonyl)pyrrolidine]	–	≥ 20
CSCCC(=O)N[C@H]1CCN(S(=O)(=O)c2cccc3cncc(Cl)c23)C1 [Example 79, (S)-3-[3-(Methylthio)propionyl]amino-1-(4-chloro-5-isoquinolinesulfonyl)pyrrolidine]	–	10 to 20
CN(C)CCC(=O)N[C@H]1CCN(S(=O)(=O)c2cccc3cncc(Cl)c23)C1 [Example 78, (S)-3-[3-(Dimethylamino)propionyl]amino-1-(4-chloro-5-isoquinolinesulfonyl)pyrrolidine]	–	10 to 20

The next lines start with results.

IC50 [1] [nM]	SMILES	inhibition in vivo at 3000 µM [2] [%]
< 1000	O=S(=O)(c1cccc2cncc(F)c12)N1CC[C@H](NCc2ccc3c(c2)OCO3)C1 [Example 18-8]	–
1000 to 3000	Cc1ccc(CN[C@H]2CCN(S(=O)(=O)c3cccc4cncc(F)c34)C2)o1 [Example 18-16]	–
1000 to 3000	O=S(=O)(c1cccc2cncc(Cl)c12)N1CC[C@H](NCc2cccs2)C1 [Example 19-17]	–
< 1000	Nc1ncc(Br)c2c(S(=O)(=O)N3CC[C@H](N)C3)cccc12 [Example 41-1, (S)-3-Amino-1-(1-amino-4-bromo-5-isoquinolinesulfonyl)pyrrolidine]	–
< 1000	O=S(=O)(c1cccc2cncc(Cl)c12)N1CC[C@H](NCc2ccc3c(c2)OCO3)C1 [Example 19-8]	–
1000 to 3000	CS(=O)(=O)N[C@H]1CCN(S(=O)(=O)c2cccc3cncc(Cl)c23)C1 [Example 50-1, (S)-3-(Methanesulfonylamino)-1-(4-chloro-5-isoquinolinesulfonyl)pyrrolidine]	–
1000 to 3000	Cn1cccc1CN[C@H]1CCN(S(=O)(=O)c2cccc3cncc(Cl)c23)C1 [Example 19-21]	–
1000 to 3000	O=S(=O)(c1cccc2cncc(Cl)c12)N1CC[C@H](NCc2ccco2)C1 [Example 19-14]	–
